Drawing on US8324199B2, “Pyridazine derivatives as factor xia inhibitors” (Bristol-Myers Squibb Company, priority 2008, dated 2012), this text covers Ki for 22 molecules.

T1 sequence (P03951 388-625 limits assumed): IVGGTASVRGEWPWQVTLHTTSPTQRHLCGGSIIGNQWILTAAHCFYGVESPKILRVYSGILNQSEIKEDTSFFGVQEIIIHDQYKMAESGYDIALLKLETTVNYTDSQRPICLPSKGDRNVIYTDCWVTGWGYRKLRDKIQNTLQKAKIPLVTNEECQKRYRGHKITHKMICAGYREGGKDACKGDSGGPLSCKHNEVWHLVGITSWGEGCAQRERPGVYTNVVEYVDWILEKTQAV
T1 sequence (P03951 19-387 partner limits assumed): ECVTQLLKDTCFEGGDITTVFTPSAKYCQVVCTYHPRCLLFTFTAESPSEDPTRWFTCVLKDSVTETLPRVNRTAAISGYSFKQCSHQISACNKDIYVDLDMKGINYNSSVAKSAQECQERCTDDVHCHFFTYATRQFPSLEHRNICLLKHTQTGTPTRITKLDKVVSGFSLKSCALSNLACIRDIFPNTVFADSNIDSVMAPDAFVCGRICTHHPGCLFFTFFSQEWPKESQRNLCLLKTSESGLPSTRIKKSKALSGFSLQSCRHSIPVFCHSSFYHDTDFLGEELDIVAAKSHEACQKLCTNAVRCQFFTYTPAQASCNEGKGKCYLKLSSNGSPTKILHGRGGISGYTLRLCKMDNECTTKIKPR

The assay has as its target T1, purified human Factor XIa (Homo sapiens, UniProt P03951).
T1 construct: purchased Haematologic Technologies
Description: Factor XIa assay (chromogenic substrate hydrolysis, Ki). In kind it is biochemical. Conditions: purified human Factor XIa 75-200 pM, substrate S-2366, 50 mM HEPES pH 7.4. On the procedure: The effectiveness of compounds of the present invention as inhibitors of the coagulation factors XIa, VIIa, IXa, Xa, XIIa, plasma kallikrein or thrombin, can be determined using a relevant purified serine protease, respectively, and an appropriate synthetic substrate. The rate of hydrolysis of the chromogenic or fluorogenic substrate by the relevant serine protease was measured both in the absence and presence of compounds of the present invention. […] A decrease in the rate of absorbance or fluorescence change in the presence of inhibitor is indicative of enzyme inhibition. Such methods are known to one skilled in the art. The results of this assay are expressed as the inhibitory constant, Ki.
Factor XIa determinations were made in 50 mM HEPES buffer at pH 7.4 containing 145 mM NaCl, 5 mM KCl, and 0.1% PEG 8000 (polyethylene glycol; JT Baker or Fisher Scientific). Determinations were made using purified human Factor XIa at a final concentration of 75-200 pM (Haematologic Technologies) and the synthetic substrate S-2366 (pyroGlu-Pro-Arg-pNA; Chromogenix or AnaSpec) at a concentration of 0.0002-0.001 M.
The Michaelis constant, Km, for substrate hydrolysis by each protease, was determined at 25° C. using the method of Lineweaver and Burk. Values of Ki were determined by allowing the protease to react with the substrate in the presence of the inhibitor. Reactions were allowed to go for periods of 20-180 minutes (depending on the protease) and the velocities (rate of absorbance or fluorescence change versus time) were measured. The following relationships were used to calculate Ki values: (vo−vs)/vs=I/(Ki(1+S/Km)) for a competitive inhibitor with one binding site; or vs/vo=A+((B−A)/1+((IC50/(I)^n))); and Ki=IC50/(1+S/Km) for a competitive inhibitor where: […]
For `COC(=O)Nc1ccc(-c2cc([C@H](CC3CCCN(S(C)(=O)=O)C3)NC(=O)/C=C/c3cc(Cl)ccc3-n3cnnn3)n[nH]c2=O)cc1` (stereo partly drawn) [Example 154, Methyl 4-(6-((1S)-1-((E)-3-(5-chloro-2-(1H-tetrazol-1-yl)phenyl)acrylamido)-2-(1-(methylsulfonyl)piperidin-3-yl)ethyl)-3-oxo-2,3-dihydropyridazin-4-yl)phenylcarbamate], the Ki (as a rule, the dissociation constant of the complex between target and ligand, obtained from inhibition or displacement) is 0.176 µM.

Take `CCN1CCC(C[C@H](NC(=O)/C=C/c2cc(Cl)ccc2-n2cnnn2)c2cc(-c3ccc(NC(=O)OC)cc3)c(Cl)nn2)C1` (stereo partly drawn) [Example 116, Methyl 4-(3-chloro-6-((1S)-1-((E)-3-(5-chloro-2-(1 H-tetrazol-1-yl)phenyl)acrylamido)-2-(1-ethylpyrrolidin-3-yl)ethyl)pyridazin-4-yl)phenylcarbamate]: the Ki worked out at 0.327 µM. With `COC(=O)Nc1ccc(-c2cc([C@H](CC(=O)OC(C)(C)C)NC(=O)/C=C/c3cc(Cl)ccc3-n3cnnn3)n[nH]c2=O)cc1` [Example 146, (S,E)-tert-Butyl 3-(3-(5-chloro-2-(1H-tetrazol-1-yl)phenyl)acrylamido)-3-(5-(4-(methoxycarbonylamino)phenyl)-6-oxo-1,6-dihydropyridazin-3-yl)propanoate] the figure was 0.0055 µM; with `COC(=O)Nc1ccc(-c2cc([C@H](Cc3ccccc3)NC(=O)/C=C/c3cc(Cl)ccc3-n3cnnn3)n[nH]c2=O)cc1F` [Example 61, (S,E)-Methyl 4-(6-(1-(3-(5-chloro-2-(1H-tetrazol-1-yl)phenyl)acrylamido)-2-phenylethyl)-3-oxo-2,3-dihydropyridazin-4-yl)-2-fluorophenylcarbamate], 1.68 µM. The figure for `COC(=O)Nc1ccc(-c2cc([C@H](CCSC)NC(=O)/C=C/c3cc(Cl)ccc3-n3cnnn3)nnc2Cl)cc1` [Example 90, (S,E)-Methyl 4-(3-chloro-6-(1-(3-(5-chloro-2-(1H-tetrazol-1-yl)phenyl)acrylamido)-3-(methylthio)propyl)pyridazin-4-yl)phenylcarbamate] is 0.067 µM; for `COC(=O)Nc1ccc(-c2cc(C(CC(=O)N3CCN(C)CC3)NC(=O)/C=C/c3cc(Cl)ccc3-n3cnnn3)c(Cl)nn2)cc1` (single isomer, unassigned) [Example 27, (E)-Methyl 4-(6-chloro-5-(1-(3-(5-chloro-2-(1H-tetrazol-1-yl)phenyl)acrylamido)-3-(4-methylpiperazin-1-yl)-3-oxopropyl)pyridazin-3-yl)phenylcarbamate] it is 0.004 µM. In turn, `COC(=O)Nc1ccc(-c2cc(C(Cc3ccccc3)NC(=O)/C=C/c3cc(Cl)ccc3-n3cnnn3)c(Cl)nn2)cc1` (single isomer, unassigned) [Example 3, (E)-Methyl 4-(6-chloro-5-(1-(3-(5-chloro-2-(1H-tetrazol-1-yl)phenyl)acrylamido)-2-phenylethyl)pyridazin-3-yl)phenylcarbamate] came in with a Ki of 0.63 µM. The figure for `NC1CC1C(=O)Nc1ccc(-c2cnnc([C@H](Cc3ccccc3)NC(=O)/C=C/c3cc(Cl)ccc3-n3cnnn3)c2)cc1` (stereo partly drawn) [Example 80, 2-Amino-N-(4-(6-((S)-1-((E)-3-(5-chloro-2-(1H-tetrazol-1-yl)phenyl)acrylamido)-2-phenylethyl)pyridazin-4-yl)phenyl)cyclopropanecarboxamide] is 3.33 µM; for `COC(=O)Nc1ccc(-c2cc([C@H](Cc3cc([S+](C)[O-])n(C)n3)NC(=O)/C=C/c3cc(Cl)ccc3-n3cnnn3)n[nH]c2=O)cc1` (stereo partly drawn) [Example 132, (S,E)-Methyl 4-(6-(1-(3-(5-chloro-2-(1H-tetrazol-1-yl)phenyl)acrylamido)-2-(1-methyl-5-(methylsulfinyl)-1H-pyrazol-3-yl)ethyl)-3-oxo-2,3-dihydropyridazin-4-yl)phenylcarbamate] it is 0.076 µM.

Turning to `COC(=O)Nc1ccc(-c2cc(C(Cc3ccccc3)NC(=O)/C=C/c3cc(Cl)ccc3-n3cnnn3)c(Cl)nn2)cc1` (single isomer, unassigned) [Example 2, (E)-Methyl 4-(6-chloro-5-(1-(3-(5-chloro-2-(1H-tetrazol-1-yl)phenyl)acrylamido)-2-phenylethyl)pyridazin-3-yl)phenylcarbamate], the Ki is 0.002 µM.

`COC(=O)Nc1ccc(-c2cc(C(CC(=O)OC(C)(C)C)NC(=O)/C=C/c3cc(Cl)ccc3-n3cnnn3)c(Cl)nn2)cc1` (single isomer, unassigned) [Example 20, (E)-tert-Butyl 3-(3-(5-chloro-2-(1H-tetrazol-1-yl)phenyl)acrylamido)-3-(3-chloro-6-(4-(methoxycarbonylamino)phenyl)pyridazin-4-yl)propanoate] returned a Ki of 0.0029 µM. `COC(=O)Nc1ccc(-c2cc([C@H](CC3CCCNC3)NC(=O)/C=C/c3cc(Cl)ccc3-n3cnnn3)nnc2Cl)cc1` (single isomer, unassigned) [Example 99] returned a Ki of 0.746 µM. In turn, `COC(=O)Nc1ccc(-c2cc([C@H](CC3CCN(C(=O)OCc4ccccc4)C3)NC(=O)/C=C/c3cc(Cl)ccc3-n3cnnn3)n[nH]c2=O)cc1` (stereo partly drawn) [Example 147, Benzyl 3-((S)-2-((E)-3-(5-chloro-2-(1H-tetrazol-1-yl)phenyl)acrylamido)-2-(5-(4-(methoxycarbonylamino)phenyl)-6-oxo-1,6-dihydropyridazin-3-yl)ethyl)pyrrolidine-1-carboxylate] had a Ki of 5.15 µM. Consider `COC(=O)Nc1ccc(-c2cc([C@H](CC3CN(C(=O)OC(C)(C)C)C3)NC(=O)/C=C/c3cc(Cl)ccc3-n3cnnn3)n[nH]c2=O)cc1` [Example 136, (S,E)-tert-Butyl 3-(2-(3-(5-chloro-2-(1H-tetrazol-1-yl)phenyl)acrylamido)-2-(5-(4-(methoxycarbonylamino)phenyl)-6-oxo-1,6-dihydropyridazin-3-yl)ethyl)azetidine-1-carboxylate], for which the Ki stood at 0.503 µM. As to `O=C(O)CCOC(=O)Nc1ccc(-c2cnnc([C@H](Cc3ccccc3)NC(=O)CCc3ccccc3-n3cnnn3)c2)cc1` [Example 60, (S)-3-(4-(6-(1-(3-(2-(1H-Tetrazol-1-yl)phenyl)propanamido)-2-phenylethyl)pyridazin-4-yl)phenylcarbamoyloxy)propanoic acid], the affinity corresponds to a Ki of 3.37 µM.

The molecule `COC(=O)Nc1ccc(-c2cc([C@H](Cc3cc4n(n3)CCCO4)NC(=O)/C=C/c3cc(Cl)ccc3-n3cnnn3)nnc2Cl)cc1` [Example 97, (S,E)-Methyl 4-(3-chloro-6-(1-(3-(5-chloro-2-(1H-tetrazol-1-yl)phenyl)acrylamido)-2-(6,7-dihydro-5H-pyrazolo[5,1-b][1,3]oxazin-2-yl)ethyl)pyridazin-4-yl)phenylcarbamate] gave an inhibition constant Ki of 0.017 µM.

With `COC(=O)Nc1ccc(-c2cc([C@H](Cc3ccncc3)NC(=O)/C=C/c3cc(Cl)ccc3-n3cnnn3)nnc2Cl)cc1` [Example 94, (S,E)-Methyl 4-(3-chloro-6-(1-(3-(5-chloro-2-(1H-tetrazol-1-yl)phenyl)acrylamido)-2-(pyridin-4-yl)ethyl)pyridazin-4-yl)phenylcarbamate], the Ki was 0.027 µM. `COC(=O)Nc1ccc(-c2cc([C@H](Cc3ccccc3)NC(=O)/C=C/c3cc(Cl)ccc3-n3cnnn3)nn(C)c2=O)cc1` [Example 40, (S,E)-Methyl 4-(6-(1-(3-(5-chloro-2-(1H-tetrazol-1-yl)phenyl)acrylamido)-2-phenylethyl)-2-methyl-3-oxo-2,3-dihydropyridazin-4-yl)phenylcarbamate] registered a Ki of 0.156 µM. With `Nc1ccc(-c2cc(C(Cc3ccccc3)NC(=O)/C=C/c3cc(Cl)ccc3-n3cnnn3)c(Cl)nn2)cn1` (racemic) [Example 36, (±)-(E)-N-(1-(6-(6-Aminopyridin-3-yl)-3-chloropyridazin-4-yl)-2-phenylethyl)-3-(5-chloro-2-(1H-tetrazol-1-yl)phenyl)acrylamide] the figure was 0.02 µM; with `CCOC(=O)Nc1ccc(-c2cc([C@H](Cc3ccccc3)NC(=O)/C=C/c3cc(Cl)ccc3-n3cnnn3)nnc2OCC)cc1` [Example 51, (S,E)-Ethyl 4-(6-(1-(3-(5-chloro-2-(1H-tetrazol-1-yl)phenyl)acrylamido)-2-phenylethyl)-3-ethoxypyridazin-4-yl)phenylcarbamate], 0.405 µM. The figure for `CCn1ccc(C[C@H](NC(=O)/C=C/c2cc(Cl)ccc2-n2cnnn2)c2cc(-c3ccc(NC(=O)OC)cc3)c(Cl)nn2)n1` [Example 71, (S,E)-Methyl 4-(3-chloro-6-(1-(3-(5-chloro-2-(1H-tetrazol-1-yl)phenyl)acrylamido)-2-(1-ethyl-1H-pyrazol-3-yl)ethyl)pyridazin-4-yl)phenylcarbamate] is 0.0094 µM; for `COC(=O)Nc1ccc(-c2cc([C@H](CC3CCCN(C(=O)C(C)C)C3)NC(=O)/C=C/c3cc(Cl)ccc3-n3cnnn3)nnc2Cl)cc1` (single isomer, unassigned) [Example 118] it is 0.055 µM.
